Test results: patent US20250388584A1, “TPK AGONIST AND METHOD FOR TREATING NEURODEGENERATIVE DISEASES USING SAME” (SHANGHAI RAISING PHARMACEUTICAL CO., LTD., priority 2022, published 2025)
Counter-ions that a name gives are not always drawn. Like-named read-outs stand apart in the source and are kept apart here.

Molecular target: TPK enzyme (Homo sapiens (Human), UniProt Q9H3S4)
Test: TPK enzyme activity test
Type: biochemical
Settings: for Emax: calculated with the effect of DMSO on TPK enzyme activity as 100%; for EC50: promoting effect on TPK enzyme activity

Sequence of TPK enzyme (Q9H3S4 whole entry): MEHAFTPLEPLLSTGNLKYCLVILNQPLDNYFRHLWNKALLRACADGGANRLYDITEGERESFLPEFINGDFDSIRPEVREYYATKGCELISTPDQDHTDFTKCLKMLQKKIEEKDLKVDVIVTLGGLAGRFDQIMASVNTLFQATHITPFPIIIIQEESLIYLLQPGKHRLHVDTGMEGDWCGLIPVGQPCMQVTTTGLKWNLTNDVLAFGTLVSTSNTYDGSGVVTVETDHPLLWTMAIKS

Row | Emax (read-out: Emax) [%] | EC50 [nM] | Emax [%] | SMILES
1 | 154 | 1650 |  | O=C(CCn1cnc2c(c1=O)CCCc1ccccc1-2)N1CCN(c2cccc(C(F)(F)F)c2)CC1 [Compound 221, 3-(3-oxo-3-(4-(3-(trifluoromethyl)phenyl)piperazin-1-yl)propyl)-3,5,6,7-tetrahydro-4H-benzo[6,7]cyclohepta[1,2-d]pyrimidin-4-one]
2 |  | 1330 | 152.22 | Cc1ccc2c(c1)-c1ncn(CCCC(=O)N3CCCC(Cc4ccc(F)cc4)C3)c(=O)c1CC2 (stereo not drawn) [Compound 223, 3-(4-(3-(4-fluorobenzyl)piperidin-1-yl)-4-oxobutyl)-9-methyl-5,6-dihydrobenzo[h]quinazolin-4(3H)-one]
3 |  | 930 |  | Cc1ccc2c(c1)-c1ncn(CCC(=O)N3CCC(Cc4ccc(F)cc4)CC3)c(=O)c1CC2 [Compound 225, 3-(3-(4-(4-fluorobenzyl)piperidin-1-yl)-3-oxopropyl)-9-methyl-5,6-dihydrobenzo[h]quinazolin-4(3H)-one]
4 | 148 | 2130 |  | O=C(CCCn1cnc2c(c1=O)CCCc1ccccc1-2)N1CCN(c2cccc(C(F)(F)F)c2)CC1 [Compound 228, 3-(4-oxo-4-(4-(3-(trifluoromethyl)phenyl)piperazin-1-yl)butyl)-3,5,6,7-tetrahydro-4H-benzo[6,7]cyclohepta[1,2-d]pyrimidin-4-one]
5 | 137 | 2260 |  | COc1ccc2[nH]c(=O)c3c(ncn3CCCC(=O)N3CCN(c4cccc(Cl)c4Cl)CC3)c2c1 [Compound 231, 3-(4-(4-(2,3-dichlorophenyl)piperazin-1-yl)-4-oxobutyl)-8-methoxy-3,5-dihydro-4H-imidazo[4,5-c]quinolin-4-one]
6 | 137 | 572 |  | COc1ccc2[nH]c(=O)c3c(c2c1)CN(CCCN1CCN(c2cccc(Cl)c2Cl)CC1)C3 [Compound 235, 2-(3-(4-(2,3-dichlorophenyl)piperazin-1-yl)propyl)-8-methoxy-1,2,3,5-tetrahydro-4H-pyrrolo[3,4-c]quinolin-4-one]
7 | 195 | 1280 |  | Cc1ccc2[nH]c3c(=O)n(CCCN4CCN(c5cccc(Cl)c5Cl)CC4)cnc3c2c1 [Diformate salt of 52, 3-(3-(4-(2,3-dichlorophenyl)piperazin-1-yl)propyl)-8-methyl-3,5-dihydro-4H-pyrimido[5,4-b]indol-4-one]
8 | 210 | 1060 |  | Cc1ccc2[nH]c3c(=O)n(CCCCN4CCN(c5cccc(C(F)(F)F)c5)CC4)cnc3c2c1 [Formate salt of 48, 8-methyl-3-(4-(4-(3-(trifluoromethyl)phenyl)piperazin-1-yl)butyl)-3,5-dihydro-4H-pyrimido[5,4-b]indol-4-one]
9 | 131 | 5600 |  | COC(=O)C1CCCCN1CCCN1c2ccccc2Sc2ccccc21 (stereo not drawn) [Formate salt of 191, methyl 1-(3-(10H-phenothiazin-10-yl)propyl)piperidin-2-carboxylate]
10 |  | 500 | 143 | O=c1c2c(ncn1CCCN1CCN(c3cccc(Cl)c3Cl)CC1)-c1ccccc1CCC2 [Formate salt of 222, 3-(3-(4-(2,3-dichlorophenyl)piperazin-1-yl)propyl)-3,5,6,7-tetrahydro-4H-benzo[6,7]cyclohepta[1,2-d]pyrimidin-4-one Formate]
11 |  | 1810 | 136 | Cc1ccc2c(c1)N1CCCC(C(=O)NCCCN3CCN(c4cccc(C(F)(F)F)c4)CC3)C1CO2 (stereo not drawn) [Formate salt of 232, 2-methyl-N-(3-(4-(3-trifluoromethylphenyl)piperazin-1-yl)propyl)-6,6a,7,8,9,10-hexahydrobenzo[b]pyrido[1,2-d][1,4]oxazine-7-carboxamide Formate]
